Test results reported in the NIST ThermoML archive (doi:10.1021/je800754w).
± gives the expanded uncertainty stated by the source.

Test: activity coefficient (dimensionless); of the first substance listed, at infinite dilution; xn = mol fraction of the nth substance listed
Conditions: Liquid, Chromatography, x1 = 0

Work on ClC(Cl)Cl [trichloromethane] + CCCCCCCCCCCCCC[P+](CCCCCC)(CCCCCC)CCCCCC.O=S(=O)([N-]S(=O)(=O)C(F)(F)F)C(F)(F)F yielded an activity coefficient (302.45 K) of 0.29 ± 0.03, an activity coefficient (322.35 K) of 0.31 ± 0.03 and an activity coefficient (342.45 K) of 0.32 ± 0.03.

Molecule Cc1ccccc1 [toluene] + CCCCCCCCCCCCCC[P+](CCCCCC)(CCCCCC)CCCCCC.O=S(=O)([N-]S(=O)(=O)C(F)(F)F)C(F)(F)F has an activity coefficient (302.45 K) of 0.46 ± 0.04, an activity coefficient (322.35 K) of 0.46 ± 0.04 and an activity coefficient (342.45 K) of 0.47 ± 0.04.

With CCCC(C)=O [pentan-2-one] + CCCCCCCCCCCCCC[P+](CCCCCC)(CCCCCC)CCCCCC.O=S(=O)([N-]S(=O)(=O)C(F)(F)F)C(F)(F)F the activity coefficient (302.45 K) was 0.31 ± 0.03, the activity coefficient (322.35 K) was 0.32 ± 0.03 and the activity coefficient (342.45 K) was 0.33 ± 0.03.

In the case of CC(C)CO [2-methyl-1-propanol] + CCCCCCCCCCCCCC[P+](CCCCCC)(CCCCCC)CCCCCC.O=S(=O)([N-]S(=O)(=O)C(F)(F)F)C(F)(F)F, the activity coefficient (302.45 K) is reported as 1.49 ± 0.1, the activity coefficient (322.35 K) is reported as 1.15 ± 0.07 and the activity coefficient (342.45 K) is reported as 0.95 ± 0.06.

In the case of CC(C)O [propan-2-ol] + CCCCCCCCCCCCCC[P+](CCCCCC)(CCCCCC)CCCCCC.O=S(=O)([N-]S(=O)(=O)C(F)(F)F)C(F)(F)F, the activity coefficient (322.35 K) is reported as 1.22 ± 0.08 and the activity coefficient (342.45 K) is reported as 0.99 ± 0.06.

CCCC=O [butanal] + CCCCCCCCCCCCCC[P+](CCCCCC)(CCCCCC)CCCCCC.O=S(=O)([N-]S(=O)(=O)C(F)(F)F)C(F)(F)F showed an activity coefficient (302.45 K) of 0.38 ± 0.03, an activity coefficient (322.35 K) of 0.36 ± 0.03 and an activity coefficient (342.45 K) of 0.35 ± 0.03.

With CC(C)OC(C)C [diisopropyl ether] + CCCCCCCCCCCCCC[P+](CCCCCC)(CCCCCC)CCCCCC.O=S(=O)([N-]S(=O)(=O)C(F)(F)F)C(F)(F)F the activity coefficient (302.45 K) was 0.93 ± 0.06, the activity coefficient (322.35 K) was 0.9 ± 0.06 and the activity coefficient (342.45 K) was 0.87 ± 0.06.

C1CCCCCC1 [cycloheptane] + CCCCCCCCCCCCCC[P+](CCCCCC)(CCCCCC)CCCCCC.O=S(=O)([N-]S(=O)(=O)C(F)(F)F)C(F)(F)F gave an activity coefficient (302.45 K) of 0.83 ± 0.05, an activity coefficient (322.35 K) of 1.81 ± 0.12 and an activity coefficient (342.45 K) of 3.59 ± 0.24.

For c1ccncc1 [pyridine] + CCCCCCCCCCCCCC[P+](CCCCCC)(CCCCCC)CCCCCC.O=S(=O)([N-]S(=O)(=O)C(F)(F)F)C(F)(F)F, the activity coefficient (302.45 K) was 0.52 ± 0.04, the activity coefficient (322.35 K) was 0.41 ± 0.03 and the activity coefficient (342.45 K) was 0.34 ± 0.03.

In the case of CC1CCCCC1 [methylcyclohexane] + CCCCCCCCCCCCCC[P+](CCCCCC)(CCCCCC)CCCCCC.O=S(=O)([N-]S(=O)(=O)C(F)(F)F)C(F)(F)F, the activity coefficient (302.45 K) is reported as 0.92 ± 0.06, the activity coefficient (322.35 K) is reported as 0.89 ± 0.06 and the activity coefficient (342.45 K) is reported as 0.86 ± 0.06.

In the case of C1CCCCC1 [cyclohexane] + CCCCCCCCCCCCCC[P+](CCCCCC)(CCCCCC)CCCCCC.O=S(=O)([N-]S(=O)(=O)C(F)(F)F)C(F)(F)F, the activity coefficient (302.45 K) is reported as 0.83 ± 0.05, the activity coefficient (322.35 K) is reported as 0.78 ± 0.05 and the activity coefficient (342.45 K) is reported as 0.75 ± 0.05.

CCCCCC [hexane] + CCCCCCCCCCCCCC[P+](CCCCCC)(CCCCCC)CCCCCC.O=S(=O)([N-]S(=O)(=O)C(F)(F)F)C(F)(F)F gave an activity coefficient (302.45 K) of 1.09 ± 0.07, an activity coefficient (322.35 K) of 1.04 ± 0.07 and an activity coefficient (342.45 K) of 1.01 ± 0.06.

Work on c1ccccc1 [benzene] + CCCCCCCCCCCCCC[P+](CCCCCC)(CCCCCC)CCCCCC.O=S(=O)([N-]S(=O)(=O)C(F)(F)F)C(F)(F)F yielded an activity coefficient (302.45 K) of 0.39 ± 0.03, an activity coefficient (322.35 K) of 0.39 ± 0.03 and an activity coefficient (342.45 K) of 0.39 ± 0.03.

CCCCCCCCCCC [undecane] + CCCCCCCCCCCCCC[P+](CCCCCC)(CCCCCC)CCCCCC.O=S(=O)([N-]S(=O)(=O)C(F)(F)F)C(F)(F)F gave an activity coefficient (302.45 K) of 2.32 ± 0.16, an activity coefficient (322.35 K) of 2.18 ± 0.15 and an activity coefficient (342.45 K) of 2.1 ± 0.2.

With C=O [methanal] + CCCCCCCCCCCCCC[P+](CCCCCC)(CCCCCC)CCCCCC.O=S(=O)([N-]S(=O)(=O)C(F)(F)F)C(F)(F)F the activity coefficient (302.45 K) was 0.06, the activity coefficient (322.35 K) was 0.06 and the activity coefficient (342.45 K) was 0.07 ± 0.03.

Molecule CCOCC [diethyl ether] + CCCCCCCCCCCCCC[P+](CCCCCC)(CCCCCC)CCCCCC.O=S(=O)([N-]S(=O)(=O)C(F)(F)F)C(F)(F)F has an activity coefficient (302.45 K) of 0.62 ± 0.04, an activity coefficient (322.35 K) of 0.59 ± 0.04 and an activity coefficient (342.45 K) of 0.57 ± 0.04.

In the case of CCCCCCCCC [nonane] + CCCCCCCCCCCCCC[P+](CCCCCC)(CCCCCC)CCCCCC.O=S(=O)([N-]S(=O)(=O)C(F)(F)F)C(F)(F)F, the activity coefficient (302.45 K) is reported as 1.87 ± 0.13, the activity coefficient (322.35 K) is reported as 1.8 ± 0.1 and the activity coefficient (342.45 K) is reported as 1.74 ± 0.12.

CCCO [propan-1-ol] + CCCCCCCCCCCCCC[P+](CCCCCC)(CCCCCC)CCCCCC.O=S(=O)([N-]S(=O)(=O)C(F)(F)F)C(F)(F)F showed an activity coefficient (302.45 K) of 1.53 ± 0.1, an activity coefficient (322.35 K) of 1.21 ± 0.08 and an activity coefficient (342.45 K) of 1 ± 0.06.

Work on C#CCCCCC [1-heptyne] + CCCCCCCCCCCCCC[P+](CCCCCC)(CCCCCC)CCCCCC.O=S(=O)([N-]S(=O)(=O)C(F)(F)F)C(F)(F)F yielded an activity coefficient (302.45 K) of 0.77 ± 0.05, an activity coefficient (322.35 K) of 0.78 ± 0.05 and an activity coefficient (342.45 K) of 0.8 ± 0.05.

ClCCl [dichloromethane] + CCCCCCCCCCCCCC[P+](CCCCCC)(CCCCCC)CCCCCC.O=S(=O)([N-]S(=O)(=O)C(F)(F)F)C(F)(F)F gave an activity coefficient (302.45 K) of 0.23 ± 0.03, an activity coefficient (322.35 K) of 0.25 ± 0.03 and an activity coefficient (342.45 K) of 0.27 ± 0.03.
